“Also recorded” adds a separate entry of the source. Where a SMILES comes first, the peptide text is derived from it. Where no end group is shown, it is not given here.
How the values were obtained:
[1] = molecular target: T1, angiotensin-I-converting enzyme (ACE) from rabbit lungs (Oryctolagus cuniculus, UniProt P12822); test: ACE inhibitory activity and IC50 (HHL substrate, HA by RP-HPLC); assay type: biochemical
T1 construct: angiotensin-I-converting enzyme (ACE) from rabbit lungs; purchased Sigma–Aldrich Co; host or cells: rabbit lung tissue
T1 sequence (P12822 34-1310): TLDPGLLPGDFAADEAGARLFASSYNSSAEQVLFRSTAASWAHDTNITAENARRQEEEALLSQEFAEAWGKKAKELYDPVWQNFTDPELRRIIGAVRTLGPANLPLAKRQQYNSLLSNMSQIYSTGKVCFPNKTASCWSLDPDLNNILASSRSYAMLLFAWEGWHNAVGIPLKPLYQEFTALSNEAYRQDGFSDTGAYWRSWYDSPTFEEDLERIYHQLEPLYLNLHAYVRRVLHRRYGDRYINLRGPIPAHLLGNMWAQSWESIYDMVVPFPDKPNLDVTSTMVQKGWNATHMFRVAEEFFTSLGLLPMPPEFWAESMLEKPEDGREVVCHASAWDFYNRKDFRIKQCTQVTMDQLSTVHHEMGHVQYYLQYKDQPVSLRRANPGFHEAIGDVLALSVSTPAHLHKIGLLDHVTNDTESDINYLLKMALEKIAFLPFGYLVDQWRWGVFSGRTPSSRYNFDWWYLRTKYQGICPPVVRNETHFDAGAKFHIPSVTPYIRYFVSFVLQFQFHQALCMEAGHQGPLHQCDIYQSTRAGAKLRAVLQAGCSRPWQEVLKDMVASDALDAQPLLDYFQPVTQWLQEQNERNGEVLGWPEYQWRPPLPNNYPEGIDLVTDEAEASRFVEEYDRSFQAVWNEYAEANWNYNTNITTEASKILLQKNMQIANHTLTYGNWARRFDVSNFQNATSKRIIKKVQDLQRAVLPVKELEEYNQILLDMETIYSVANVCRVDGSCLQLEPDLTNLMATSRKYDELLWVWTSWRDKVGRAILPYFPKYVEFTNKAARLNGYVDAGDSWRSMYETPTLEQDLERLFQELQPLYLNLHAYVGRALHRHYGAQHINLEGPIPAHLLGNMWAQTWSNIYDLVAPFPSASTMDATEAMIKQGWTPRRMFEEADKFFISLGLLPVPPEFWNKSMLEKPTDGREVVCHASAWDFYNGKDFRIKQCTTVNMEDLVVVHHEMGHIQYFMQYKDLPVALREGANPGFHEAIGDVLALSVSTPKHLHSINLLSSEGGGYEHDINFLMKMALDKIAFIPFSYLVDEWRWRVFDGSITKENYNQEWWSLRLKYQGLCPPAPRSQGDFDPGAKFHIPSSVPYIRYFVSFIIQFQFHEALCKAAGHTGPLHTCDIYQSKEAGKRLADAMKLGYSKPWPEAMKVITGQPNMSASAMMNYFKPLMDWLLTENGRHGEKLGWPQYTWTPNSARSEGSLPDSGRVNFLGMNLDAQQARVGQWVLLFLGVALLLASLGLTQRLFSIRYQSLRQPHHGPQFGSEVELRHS
Method: (§1) The ACE inhibitory activity was investigated following Cushman and Cheung, with some modifications. First, 30 µL of 2.5 mM HHL was premixed with 10 µL of the sample at 37 °C for 5 min. Then, 20 µL of 0.05 mU/µL ACE was added. The reaction was maintained at 37 °C for one hour. Afterward, 60 µL of 1 N HCl was added to stop the reaction, and 10 µL of 0.2 µg/µL ferulic acid was used as an internal standard. All the reagents and samples were dissolved in pH 8.3 ACE buffer (760 mM boric acid, 300 mM NaCl, and 200 mM NaOH). Using UV-Vis RP-HPLC (Hitachi High-Tech Co., Tokyo, Japan), the area of HA, as the product of ACE and HHL reactions, was measured at 228 nm. An elution with 23% ACN and 0.1% TFA was used at a flow rate of 1 mL/min for 15 min to separate the analytes. ACE inhibitory activity was determined by the following formula:(2) ACE inhibitory activity%=HA(no inhibitor)−HA(inhibitor)/HA(no inhibitor)×100%
(§2) The areas of HA acquired in the presence and absence of an inhibitor were referred to as HA (inhibitor) and HA (no inhibitor), respectively. The ACE half-maximal inhibitory concentration (ACE IC50) was performed by plotting at least five logarithmic concentrations of the inhibitor versus their ACE inhibition (%) to construct a nonlinear regression.

[2] = test system: pepsin, trypsin and α-chymotrypsin; test: Stability against simulated gastrointestinal (SGI) digestion (pepsin, then trypsin and α-chymotrypsin; LC-MS); assay type: in vitro ADME; settings: pepsin ninety minutes, then α-chymotrypsin and trypsin three hours, 37 °C
Method: The peptide stability against SGI digestion was investigated by following the research of Gu and Wu, with some modifications. All the SGI enzyme-to-peptide ratios were fixed at 2%. The synthesized peptides MW4 and VF7 were dissolved in 35 mM NaCl buffer (pH 2.0) and digested by pepsin at 37 °C for ninety minutes, respectively. Next, the pH was adjusted to 7–8. Half of each sample was boiled for 15 min to terminate pepsin digestion. The other half of the sample was treated with trypsin and α-chymotrypsin and the reaction was continued at 37 °C for three hours, followed by boiling for 15 min to stop the reaction. An LC-MS analysis was employed to assess the resistance of peptides to SGI digestion.

[3] = molecular target: T2, recombinant human dipeptidyl peptidase-IV (DPP4) (Homo sapiens, UniProt P27487); test: DPP4 inhibitory activity and IC50 (GP-pNA substrate, absorbance of pNA at 405 nm); assay type: biochemical; settings: for IC50: synthetic peptides; for inhibition at 2000 µM / DPP4 inhibitory activity: synthetic peptides at 2 mM
T2 construct: purchased Sigma–Aldrich Co
Method: (§3) The DPP4 inhibitory activity was studied following Hung et al.. All the reagents and samples were dissolved in 0.1 M Tris-HCl buffer, pH 8. First, 25 µL of 1.6 mM GP-pNA was premixed with 25 µL of sample and incubated at 37 °C for 10 min. Then, 50 µL of 0.5 U/µL DPP4 was added. The reaction was set at 37 °C for one hour. 100 µL of 1 M sodium acetate at pH 4 was added to stop the enzymatic reaction. Using a PowerWave XS (Biotek®, Winooski, VT, USA) 96-well microplate reader, the absorbance of pNA, which was generated by the DPP4 and GP-pNA reactions, was measured at 405 nm. DPP4 inhibitory activity was examined by the following formula:(1) DPP4 inhibitory activity%=pNA(no inhibitor)−pNA(inhibitor)/pNA(no inhibitor)×100%,
as §2, with “absorbances” for “areas”, “pNA obtained” for “HA acquired”, “pNA” for “HA”, “DPP4” for “ACE”, “(DPP4” for “(ACE”, “determined” for “performed”

[4] = molecular target: T2, recombinant human dipeptidyl peptidase-IV (DPP4); test: Peptide inhibition mechanism toward DPP4 (Lineweaver–Burk plot); assay type: biochemical; settings: GP-pNA 0.8, 1.6, 3.2 mM
Method: as §3
The inhibition mechanism of peptides on DPP4 and ACE was studied using the inhibitory assays described previously. The peptide inhibition mechanism toward DPP4 was identified by generating a Lineweaver–Burk plot using the production rates of pNA in the presence and absence of the inhibitor at GP-pNA concentrations of 0.8, 1.6, and 3.2 mM. Meanwhile, the HA production rate was determined with and without the inhibitor using HHL concentrations of 0.625, 1.25, and 5 mM to assess the peptide inhibition mechanism against ACE through a Lineweaver–Burk plot.

DPP4 = settings: cited from earlier work
ACE = settings: cited from earlier work
[5] = molecular target: T1, angiotensin-I-converting enzyme (ACE) from rabbit lungs; test: Peptide inhibition mechanism toward ACE (Lineweaver–Burk plot); assay type: biochemical; settings: HHL 0.625, 1.25, 5 mM
Method: as §1
The inhibition mechanism of peptides on DPP4 and ACE was studied using the inhibitory assays described previously. […] Meanwhile, the HA production rate was determined with and without the inhibitor using HHL concentrations of 0.625, 1.25, and 5 mM to assess the peptide inhibition mechanism against ACE through a Lineweaver–Burk plot.

T2 sequence (P27487 whole entry): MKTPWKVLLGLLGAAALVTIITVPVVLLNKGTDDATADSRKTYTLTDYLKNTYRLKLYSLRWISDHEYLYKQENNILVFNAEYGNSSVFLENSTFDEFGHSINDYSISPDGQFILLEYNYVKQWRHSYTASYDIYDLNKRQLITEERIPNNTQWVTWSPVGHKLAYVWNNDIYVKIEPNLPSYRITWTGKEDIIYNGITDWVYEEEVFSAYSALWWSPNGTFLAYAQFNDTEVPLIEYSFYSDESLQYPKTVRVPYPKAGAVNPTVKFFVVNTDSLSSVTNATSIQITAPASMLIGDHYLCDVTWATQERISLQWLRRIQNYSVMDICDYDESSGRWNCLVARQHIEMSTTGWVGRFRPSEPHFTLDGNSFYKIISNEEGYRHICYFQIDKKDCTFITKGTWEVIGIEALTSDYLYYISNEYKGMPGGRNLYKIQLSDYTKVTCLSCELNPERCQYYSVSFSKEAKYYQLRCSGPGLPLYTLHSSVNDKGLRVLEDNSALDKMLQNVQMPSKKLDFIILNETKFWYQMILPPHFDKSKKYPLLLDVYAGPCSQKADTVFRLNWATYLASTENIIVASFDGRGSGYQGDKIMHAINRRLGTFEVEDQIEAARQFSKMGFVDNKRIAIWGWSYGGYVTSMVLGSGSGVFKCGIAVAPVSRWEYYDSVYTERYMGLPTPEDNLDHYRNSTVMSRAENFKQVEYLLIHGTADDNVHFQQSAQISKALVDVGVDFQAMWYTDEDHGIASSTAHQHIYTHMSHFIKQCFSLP

Compound | IC50 [3] [µM] | inhibition at 2000 µM [3] [%] | IC50 (DPP4) [µM] | other results
MLPQNF-OH [MF6, MLPQNF] | 957 ± 39.2 | 68 | – | –
WALPTQSW [peptide derived from Inca nut seed GP hydrolysate] | – | – | 132 | IC50 (ACE): 4.7 µM
ELF [EF3] | – | – | – | DPP4 inhibitory activity [3]: 4%
APLVSW | – | – | 145 | IC50 (ACE): 9.6 µM
PLW [PW3] | – | – | – | DPP4 inhibitory activity [3]: 6%
RATLPF-OH [RF6, RATLPF] | 1670 ± 45.4 | 56 | – | –
CC(C)C[C@H](N)C(=O)N[C@@H](Cc1ccccc1)C(=O)N[C@@H](Cc1ccc(O)cc1)C(=O)O [LY3, LFY] (H-Leu-Phe-Tyr-OH; N-terminus assumed) | 2100 ± 55.2 | 49 | – | –
HNLPVL [HL6] | – | – | – | DPP4 inhibitory activity [3]: 12%
LPSW | – | – | 270 | IC50 (ACE): 21 µM
PAGPF | – | – | 136 | –

Further lines, with some results ahead:

IC50 [3] [µM] | inhibition at 2000 µM [3] [%] | Compound | IC50 (DPP4) [µM] | other results
151 ± 3.4 | 90 | VPSGAPF-OH [VF7, VPSGAPF] | – | inhibition at 200 µM ([1]; 200 µM): 19%; Stability during simulated gastrointestinal digestion [2]: remained stable; also recorded: neither MW4 nor VF7 was hydrolyzed; DPP4 inhibition mechanism [4]: competitive inhibitors
128 ± 1.3 | 97 | CSCC[C@H](N)C(=O)N1CCC[C@H]1C(=O)N[C@@H](Cc1c[nH]cn1)C(=O)N[C@@H](Cc1c[nH]c2ccccc12)C(=O)O [MW4, MPHW] (H-MPHW-OH; N-terminus assumed) | – | ACE inhibition mechanism [5]: competitive inhibitor; IC50 [1]: 172 ± 10.6 µM; Stability during simulated gastrointestinal digestion [2]: remained stable; also recorded: neither MW4 nor VF7 was hydrolyzed; DPP4 inhibition mechanism [4]: competitive inhibitors
913.6 ± 6.7 | 71 | LFPNAGY-OH [LY7, LFPNAGY] | – | –
